Data on 1 compound can be found in patent US9914958B2, “Nucleic acid-based linkers for detecting and measuring interactions” (President and Fellows of Harvard College, priority 2011, dated 2018).

Structures are written as SMILES.

The target of this assay is streptavidin (Streptomyces avidinii, UniProt P22629). As to the kind of experiment: DNA nanoswitch gel electrophoresis assay of biotin-streptavidin dissociation kinetics. Format: binding. To be noted: for dissociation time: 150 mM salt, multiplied by two to represent a single biotin-streptavidin interaction. An excerpt: Linkers were designed according to protocols for long (2580 bp) and short (600 bp) loops as described herein. […] All other oligos were the same as those used previously. Briefly, looped constructs were made by mixing a long single-stranded DNA (M13mp18, in this case) with over 121 oligos that are complementary along its length. […] The constructs come together by self-assembly with a temperature ramp heating and cooling them.
Sequence of streptavidin (P22629 25-183, species assumed): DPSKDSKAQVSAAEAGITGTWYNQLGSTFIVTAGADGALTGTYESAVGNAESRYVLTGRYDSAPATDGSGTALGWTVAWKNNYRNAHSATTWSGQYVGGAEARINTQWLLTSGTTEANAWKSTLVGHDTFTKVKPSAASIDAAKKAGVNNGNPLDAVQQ
Recognizing that the nanoswitch conformation informs the receptor-ligand binding state (bound or unbound), and that the conformation can be observed on a gel, an assay to measure bulk interaction kinetics was developed. The assay, conceptually shown in FIG. 7, proceeds as follows: 1) form a looped nucleic acid (DNA) construct that relies on a receptor and a ligand being bound to each other, 2) quench the interaction between the receptor and the ligand, for example, with excess receptor or ligand to prevent rebinding following dissociation, 3) monitor the relative amount of looped construct over time to measure kinetics.
Linear double-stranded DNA constructs 7249 base pairs (bp) in length were self-assembled by combining the single-stranded M13 bacteriophage genome with 121 complementary oligos. (See also Halvorsen K et al., 2011). Two of the oligos were labeled with single biotins and placed 2580 bp from each other, such that interaction with streptavidin induced the formation of a 2580 bp loop in the structure. […] The entire array of 16 conditions with five time points each plus controls was then run on a single 96 lane agarose gel (FIG. 8).
To determine the biotin-streptavidin dissociation kinetics, an image of the gel was analyzed using publicly available software (ImageJ). The gel analysis tool in ImageJ was used to measure the integrated intensity of the band containing looped construct, and this quantity was normalized by the integrated intensity of a reference band in the same lane from a DNA ladder, which was added to the construct prior to starting experiments. Individual time constants for each experimental condition were determined by fitting a single exponential decay to the data using an error weighted least squares fitting.

As to `O=C(O)CCCC[C@@H]1SC[C@@H]2NC(=O)N[C@@H]21` [biotin], the dissociation time reads like this: (25° C.) 148 ± 10 h; (37° C.) 11.2 ± 3 h. Further, where the note is “16 conditions: four salts, four temperatures (4° C. to 50° C., 5 mM to 500 mM)”, the “time constants, range over the conditions tested” value is on record as “half of an hour to two months”. Moreover, the “time constants, range (FIG. 8 legend)” value (16 experimental conditions, FIG. 8 table) is given as “less than 1 hour to over 1000 hours”. Moreover, the “variation of off-rate with temperature” value (at a given salt concentration, from 4° C. to 50° C.) is recorded as “over 100 fold”. Also, under “at a given temperature, from 5 mM to 500 mM”, the “change of off-rate with salt” value is listed as “less than 2 fold”. For the setting “high temperature”, the “fastest off-rate measured (as a time)” value is 40 min.
